This passage reports wakefulness results from US20090312367A1, “COMBINATION OF MODAFINIL AND AN ANTAGONIST OR INVERSE AGONIST OF THE H3 RECEPTOR” (Bioprojet, priority 2006, published 2009).

This assay deals with cats with MPTP-induced parkinsonism. Description: Parkinson's disease model: wakefulness in cats with MPTP-induced parkinsonism. The format is in vivo. As to conditions: MPTP-treated cats displaying sleepiness. The source says:
The inventors also investigated the combination of 1-{3-[3-(4-chlorophenyl)propoxy]propyl}piperidine and modafinil on wakefulness in cats with MPTP-induced parkinsonism. MPTP is a neurotoxin which selectively destroys dopaminergic neurons in the mesencephalon. MPTP-treated animals display sleepiness similar to that seen in many patients.

Consider `NC(=O)C[S+]([O-])C(c1ccccc1)c1ccccc1` (stereo not shown) [modafinil, 2-benzhydrylsulfinylthanamide], for which the wakefulness result is recorded as “only a modest improvement in wakefulness”.
